Laboratory results taken from patent US10213415B2, “Compounds as opioid receptor modulators” (JANSSEN PHARMACEUTICA NV, priority 2004, dated 2019).
“And” between values parts separate entries of the source, which are not always exact repeats. Equal entries are not always repeated. Where two headings read alike, the source gives them in different places.

How the values were obtained:
[1] = target: T1, delta opioid receptor (NG108-15 cell membranes) (Mus musculus, UniProt P32300); assay: Delta Opioid Receptor Functional Assay: [35S]GTPγS Binding in NG108-15 Cell Membranes, Version 2; type: biochemical; details: NG108-15 cell membranes, version 2; for EC50: [35S]GTPγS, read-out: DOR GTP-binding Assay_v2_ EC50; for DOR GTP-binding Assay v2 (% I): % inhibition of agonist-stimulated GTPγS binding
T1 construct: NG108-15 cell membranes were purchased from Applied Cell Sciences (Rockville, Md.); host or cells: NG108-15 cells (membranes purchased)
In short: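 SPA-coupled NG108-15 membranes (37.5 μg/ml) were incubated with 0.1 nM [35S]GTPγS and 100 μM GDP in Tris pH 7.6, 5 mM MgCl2, 100 mM NaCl, with increasing agonist concentrations; 10 μM unlabeled GTPγS defined nonspecific binding. EC50 from % of basal; inhibition as % of 1 μM SNC80 stimulation.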

[2] = test system: novel environment-stressed mice; assay: In Vivo Assay-Stress-Induced Fecal Output (Fecal Output for 1 hr); set-up: species or system mouse; details: for response vs control in vivo at 30 mg/kg / response vs control in vivo at 10 mg/kg: Mus musculus, po, 1 h; for response vs control in vivo at 30 mg/kg / Fecal Output (# pellets) cpd / response vs control in vivo at 10 mg/kg: 1 hr; for # of pellets, Compound (m) 3.0 / Fecal pellet output, Compound (% control) 3.0 / Fecal pellet output, Compound (% NES) 3.0: dose 3.0, oral; for # of pellets, Compound (m) 10.0 / Fecal pellet output, Compound (% control) 10.0 / Fecal pellet output, Compound (% NES) 10.0: dose 10.0, oral; for # of pellets, Compound (m) 30.0 / Fecal pellet output, Compound (% control) 30.0: dose 30.0, oral; for Fecal pellet output, Compound (% NES) 30: dose 30, oral; for Fecal Output (# pellets) cpd: novel environment-stressed mice
In short: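 Adult male Crl:CD-1(ICR) mice (˜30-35 g; at least 10 per dose group) were split into acclimated non-stressed controls, held individually for 16-18 hr in wire-mesh-bottom cages, and non-acclimated stressed groups. Mice were dosed intragastrically with vehicle or test compound in 0.5% methylcellulose, housed individually in novel cages over absorbent cardboard, and fecal pellets per mouse were counted hourly.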

male CD-1 mice = assay: In Vivo Assay: Upper GI Tract Transit (MUGIT); details: Mus musculus, po, 1 h, dose 30 (mg), p.o., read-out: upper GI transit (% ctrl)
Method: Methods: The animals used in these studies were male CD-1 mice, ave. wt. ˜30 g. Mice were housed under 12 h/12 h light/dark cycle, food & water ad lib. On the day of the experiment mice were assigned to experimental groups, including one vehicle-only group (=control). At 30 min before administration of carmine dye, animals were dosed with vehicle or vehicle-plus-compound, mice were returned to their home cages after drug administration. After administration of carmine, the animals were either returned to their home cages (non-stressed) or individually placed in the same metal cages as used in the fecal output or entire GI tract transit to induce a novel environment stress. One hour after administration of carmine, mice were sacrificed by cervical dislocation, the abdomen opened midventrally, the small intestine from pylorus to cecum was removed, the mesentery divided in order to lay the intestine straight & flat—without stretching. The total length of intestine and the length of carmine-dyed intestine were measured in order to determine the percent of the upper GI tract over which transit had occurred as follows: {(Length of carmine-dyed intestine)/(Total length of intestine)}×100=% upper GI transit. The data expressed were group means±SD (or s.e.m.) and data expressed as % of control.

[3] = 30 mg/kg oral, relative to novel environment stress (NES) vehicle group, read-out: Fecal Output cpd % NES
[4] = NES mice, vs acclimated control
[5] = 30 mg/kg oral, relative to acclimated control, read-out: Fecal Output cpd % control
[6] = 10 mg/kg oral, relative to acclimated control, read-out: Fecal Output cpd % control
[7] = 10 mg/kg oral, relative to novel environment stress (NES) vehicle group, read-out: Fecal Output cpd % NES

T1 sequence (P32300 whole entry): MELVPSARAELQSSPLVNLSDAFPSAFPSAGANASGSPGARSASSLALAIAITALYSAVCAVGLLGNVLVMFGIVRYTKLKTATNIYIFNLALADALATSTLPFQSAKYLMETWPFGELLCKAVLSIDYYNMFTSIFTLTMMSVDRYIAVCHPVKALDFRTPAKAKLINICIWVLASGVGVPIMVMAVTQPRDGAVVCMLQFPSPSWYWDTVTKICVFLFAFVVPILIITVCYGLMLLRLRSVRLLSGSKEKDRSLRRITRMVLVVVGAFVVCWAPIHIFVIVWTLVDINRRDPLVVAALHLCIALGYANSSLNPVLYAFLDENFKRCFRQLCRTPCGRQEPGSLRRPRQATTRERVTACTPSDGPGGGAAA

## COc1ccc(CN(Cc2nc(-c3ccccc3)c[nH]2)C(=O)[C@@H](N)Cc2ccc(C(N)=O)cc2)cc1C(=O)O [Cpd 5]
[1]
  EC50: > 10000 nM
  DOR GTP-binding Assay v2 (% I): 47.12%

## Cc1cc(O)cc(C)c1C[C@H](N)C(=O)N(C)[C@@H](C)c1nc(-c2ccccc2)c[nH]1 [Cpd 207]
[2]; [3]
  response vs control in vivo at 30 mg/kg: 49.6%
[2]; dose 0.3, oral, NES mice, fecal output 1 hr
  # of pellets, Compound (m) 0.3: 11.4
[2]; dose 0.3, oral, NES mice, vs acclimated control
  Fecal pellet output, Compound (% control) 0.3: 219.2 % control
[2]; dose 0.3, oral, vs vehicle NES group
  Fecal pellet output, Compound (% NES) 0.3: 100 % NES
[2]; dose 0.5, oral, NES mice, fecal output 1 hr
  # of pellets, Compound (m) 0.5: 9.4
[2]; dose 0.5, oral, NES mice, vs acclimated control
  Fecal pellet output, Compound (% control) 0.5: 195.8 % control
[2]; dose 0.5, oral, vs vehicle NES group
  Fecal pellet output, Compound (% NES) 0.5: 109 % NES
[2]; NES mice, fecal output 1 hr
  # of pellets, Compound (m) 3.0: 12 and 7.3
  # of pellets, Compound (m) 10.0: 4.9 and 6.7 and 5.5 and 4.8
  # of pellets, Compound (m) 30.0: 3.5 and 3.4
[2]; [4]
  Fecal pellet output, Compound (% control) 3.0: 228.8 % control and 202.8 % control
  Fecal pellet output, Compound (% control) 10.0: 94.2 % control and 139.6 % control and 161.8 % control and 133.3 % control
  Fecal pellet output, Compound (% control) 30.0: 103 % control and 94 % control
[2]; vs vehicle NES group
  Fecal pellet output, Compound (% NES) 3.0: 104.4 % NES and 112.3 % NES
  Fecal pellet output, Compound (% NES) 10.0: 42.98 % NES and 77.91 % NES and 50.93 % NES and 73.85 % NES
  Fecal pellet output, Compound (% NES) 30: 32.41 % NES and 52.31 % NES
[2]; dose 5.0, oral, NES mice, fecal output 1 hr
  # of pellets, Compound (m) 5.0: 8.6
[2]; dose 5.0, oral, NES mice, vs acclimated control
  Fecal pellet output, Compound (% control) 5.0: 179.2 % control
[2]; dose 5.0, oral, vs vehicle NES group
  Fecal pellet output, Compound (% NES) 5.0: 100 % NES
[2]; dose 6.0, oral, NES mice, fecal output 1 hr
  # of pellets, Compound (m) 6.0: 7.5
[2]; dose 6.0, oral, NES mice, vs acclimated control
  Fecal pellet output, Compound (% control) 6.0: 220.6 % control
[2]; dose 6.0, oral, vs vehicle NES group
  Fecal pellet output, Compound (% NES) 6.0: 69.44 % NES

## Cc1cc(C(N)=O)cc(C)c1C[C@H](N)C(=O)N(Cc1ccccc1)[C@@H](C)c1nc(-c2ccccc2)c[nH]1 [Cpd 114]
[2]; 30 mg/kg oral
  Fecal Output (# pellets) cpd: 7.8 pellets
[2]; [5]
  response vs control in vivo at 30 mg/kg: 108%
[2]; [3]
  response vs control in vivo at 30 mg/kg: 75.7%
[2]; NES mice, fecal output 1 hr
  # of pellets, Compound (m) 3.0: 9.6
  # of pellets, Compound (m) 10.0: 7.7
  # of pellets, Compound (m) 30.0: 5.4
[2]; [4]
  Fecal pellet output, Compound (% control) 3.0: 282.4 % control
  Fecal pellet output, Compound (% control) 10.0: 226.5 % control
  Fecal pellet output, Compound (% control) 30.0: 159 % control
[2]; vs vehicle NES group
  Fecal pellet output, Compound (% NES) 3.0: 96 % NES
  Fecal pellet output, Compound (% NES) 10.0: 77 % NES
  Fecal pellet output, Compound (% NES) 30: 54 % NES

## CCN(C(=O)[C@@H](N)Cc1c(C)cc(O)cc1C)[C@@H](C)c1nc(-c2ccccc2)c[nH]1 [Cpd 216]
[2]; 10 mg/kg oral
  Fecal Output (# pellets) cpd: 4.9 pellets
[2]; [6]
  response vs control in vivo at 10 mg/kg: 136%
[2]; [7]
  response vs control in vivo at 10 mg/kg: 47.6%

## COC(=O)c1ccc(CN(C(=O)[C@@H](N)Cc2ccc(C(N)=O)cc2)[C@@H](C)c2nc(-c3ccccc3)c[nH]2)o1 [Cpd 303]
[1]
  EC50: 95 nM
  DOR GTP-binding Assay v2 (% I): 23.85%

## Cc1cc(O)cc(C)c1C[C@H](N)C(=O)N(Cc1nc(-c2ccccc2)c[nH]1)CC1CC1 [Cpd 192]
[2]; 10 mg/kg oral
  Fecal Output (# pellets) cpd: 10.5 pellets
[2]; [6]
  response vs control in vivo at 10 mg/kg: 194%
[2]; [7]
  response vs control in vivo at 10 mg/kg: 84%

## Cc1cc(O)cc(C)c1C[C@H](N)C(=O)N(Cc1ccccc1)[C@@H](C)c1nc(-c2ccccc2)c[nH]1 [Cpd 218]
[2]; 30 mg/kg oral
  Fecal Output (# pellets) cpd: 3.7 pellets
[2]; [5]
  response vs control in vivo at 30 mg/kg: 138%
[2]; [3]
  response vs control in vivo at 30 mg/kg: 35.4%

## COc1ccc(CN(C(=O)[C@@H](N)Cc2c(C)cc(O)cc2C)[C@@H](C)c2nc(-c3ccccc3)c[nH]2)cc1C(=O)O [Cpd 260]
[1]
  EC50: > 10000 nM
  DOR GTP-binding Assay v2 (% I): 100.97%

## Cc1cc(C(N)=O)cc(C)c1C[C@H](N)C(=O)N(Cc1ccc(C(=O)O)o1)[C@@H](C)c1nc(-c2ccccc2)c[nH]1 [Cpd 256]
[1]
  EC50: > 10000 nM
  DOR GTP-binding Assay v2 (% I): 89.19%
Male CD-1 mice
  response vs control in vivo at 30 mg: 89.7%

## Cc1cc(O)cc(C)c1C[C@H](N)C(=O)N(C)[C@@H](C)c1nc(Cc2ccccc2)c[nH]1 [Cpd 205]
[2]; 30 mg/kg oral
  Fecal Output (# pellets) cpd: 2.3 pellets
[2]; [5]
  response vs control in vivo at 30 mg/kg: 70.7%
[2]; [3]
  response vs control in vivo at 30 mg/kg: 24.6%

## Cc1cc(O)cc(C)c1C[C@H](N)C(=O)N(C)[C@H](C)c1nc(-c2ccccc2)c[nH]1 [Cpd 206]
[2]; 10 mg/kg oral
  Fecal Output (# pellets) cpd: 8.6 pellets
[2]; [6]
  response vs control in vivo at 10 mg/kg: 226%
[2]; [7]
  response vs control in vivo at 10 mg/kg: 65.6%

## Cc1cc(O)cc(C)c1C[C@H](N)C(=O)N(Cc1cccc(C(=O)O)c1)[C@@H](C)c1nc(-c2ccccc2)c[nH]1 [Cpd 48]
[1]
  EC50: > 10000 nM
  DOR GTP-binding Assay v2 (% I): 108.36%
Male CD-1 mice
  response vs control in vivo at 30 mg: 102%

## Cc1cc(O)cc(C)c1C[C@H](N)C(=O)N(Cc1ccnc2ccccc12)[C@@H](C)c1nc(-c2ccccc2)c[nH]1 [Cpd 246]
[1]
  EC50: 0.3 nM
  DOR GTP-binding Assay v2 (% I): 47.01%

## Cc1cc(C(N)=O)cc(C)c1C[C@H](N)C(=O)N(Cc1ccc(C(=O)O)cc1)[C@@H](C)c1nc(-c2ccccc2)c[nH]1 [Cpd 50]
[1]
  EC50: 1.4 nM
  DOR GTP-binding Assay v2 (% I): 60.27%
[2]; 30 mg/kg oral
  Fecal Output (# pellets) cpd: 3.3 pellets
[2]; [5]
  response vs control in vivo at 30 mg/kg: 144%
[2]; [3]
  response vs control in vivo at 30 mg/kg: 47.1%

## COC(=O)c1ccc(CN(C(=O)[C@@H](N)Cc2c(C)cc(C(N)=O)cc2C)[C@@H](C)c2nc(-c3ccccc3)c[nH]2)o1 [Cpd 257]
[1]
  EC50: 7.4 nM
  DOR GTP-binding Assay v2 (% I): 48.88%

## Cc1cc(O)cc(C)c1C[C@H](N)C(=O)N(Cc1nc(-c2ccccc2)c[nH]1)C(C)C [Cpd 194]
[2]; 10 mg/kg oral
  Fecal Output (# pellets) cpd: 11.8 pellets
[2]; [6]
  response vs control in vivo at 10 mg/kg: 218%
[2]; [7]
  response vs control in vivo at 10 mg/kg: 94.4%

## COc1ccc(CN(C(=O)[C@@H](N)Cc2c(C)cc(C(N)=O)cc2C)[C@@H](C)c2nc(-c3ccccc3)c[nH]2)cc1-c1nnn[nH]1 [Cpd 8]
[1]
  EC50: > 10000 nM
  DOR GTP-binding Assay v2 (% I): 94.03%
Male CD-1 mice
  response vs control in vivo at 30 mg: 77.3%

## CC(C)N(C(=O)[C@@H](N)Cc1ccc(O)cc1)[C@@H](C)c1nc(-c2ccccc2)c[nH]1 [Cpd 225]
[2]; 30 mg/kg oral
  Fecal Output (# pellets) cpd: 7.3 pellets
[2]; [5]
  response vs control in vivo at 30 mg/kg: 235%
[2]; [3]
  response vs control in vivo at 30 mg/kg: 152%

## Cc1cc(O)cc(C)c1C[C@H](N)C(=O)N(C)Cc1nc(-c2ccccc2)c[nH]1 [Cpd 199]
[2]; [7]
  response vs control in vivo at 10 mg/kg: 86.7%

## COC(=O)c1cc(CN(C(=O)[C@@H](N)Cc2c(C)cc(C(N)=O)cc2C)[C@@H](C)c2nc(-c3ccccc3)c[nH]2)ccc1OC [Cpd 17]
[1]
  EC50: 1.3 nM
  DOR GTP-binding Assay v2 (% I): 68.64%
Male CD-1 mice
  response vs control in vivo at 30 mg: 37.3%
